Experimental data: patent publication US20080207616A1, “Quinoxalines as B Baf Inhhibitors” (AstraZeneca AB, priority 2004, published 2008)

Target: T1, human recombinant, purified wild type His-B-Raf protein kinase (Homo sapiens, UniProt P15056)
T1 construct: His
Assay: B-Raf In Vitro ELISA Assay
Format: biochemical
Conditions: phosphorylation of MEK1; 2.5 nM B-Raf, 0.15 μM MEK1, 10 μM ATP; 1 hour preincubation at 25° C.
Description: B-Raf In Vitro ELISA Assay
Activity of human recombinant, purified wild type His-B-Raf protein kinase was determined in vitro using an enzyme-linked immunosorbent assay (ELISA) assay format, which measures phosphorylation of the B-Raf substrate, human recombinant, purified His-derived (detagged) MEK1. The reaction utilized 2.5 nM B-Raf, 0.15 μM MEK1 and 10 μM adenosine triphosphate (ATP) in 40 mM N-(2-Hydroxyethyl)piperazine-N′-(2-ethanesulfonic acid hemisodium salt (HEPES), […] 1,4-Dithio-DL-threitol (DTT), 10 mM MgCl2, 1 mM ethylenediaminetetraacetic acid (EDTA) and 0.2 M NaCl (1×HEPES buffer), with or without compound at various concentrations, in a total reaction volume of 25 μl in 384 well plates. B-Raf and compound were preincubated in 1×HEPES buffer for 1 hour at 25° C. Reactions were initiated with addition of MEK1 and ATP in 1× HEPES buffer and incubated at 25° C. for 50 minutes and reactions stopped by addition of 10 μl 75 mM EDTA (final concentration […]) in 1×HEPES buffer. 5 μl of the assay mix was then diluted 1:20 into 50 mM EDTA in 1×HEPES buffer, transferred to 384 well black high protein binding plates and incubated overnight at 4° C. […] Blue fluorescent product was detected at excitation 325 nm and emission 420 nm using a TECAN Ultra plate reader. Data was graphed and IC50s calculated using Excel Fit (Microsoft).

T1 sequence (P15056 whole entry): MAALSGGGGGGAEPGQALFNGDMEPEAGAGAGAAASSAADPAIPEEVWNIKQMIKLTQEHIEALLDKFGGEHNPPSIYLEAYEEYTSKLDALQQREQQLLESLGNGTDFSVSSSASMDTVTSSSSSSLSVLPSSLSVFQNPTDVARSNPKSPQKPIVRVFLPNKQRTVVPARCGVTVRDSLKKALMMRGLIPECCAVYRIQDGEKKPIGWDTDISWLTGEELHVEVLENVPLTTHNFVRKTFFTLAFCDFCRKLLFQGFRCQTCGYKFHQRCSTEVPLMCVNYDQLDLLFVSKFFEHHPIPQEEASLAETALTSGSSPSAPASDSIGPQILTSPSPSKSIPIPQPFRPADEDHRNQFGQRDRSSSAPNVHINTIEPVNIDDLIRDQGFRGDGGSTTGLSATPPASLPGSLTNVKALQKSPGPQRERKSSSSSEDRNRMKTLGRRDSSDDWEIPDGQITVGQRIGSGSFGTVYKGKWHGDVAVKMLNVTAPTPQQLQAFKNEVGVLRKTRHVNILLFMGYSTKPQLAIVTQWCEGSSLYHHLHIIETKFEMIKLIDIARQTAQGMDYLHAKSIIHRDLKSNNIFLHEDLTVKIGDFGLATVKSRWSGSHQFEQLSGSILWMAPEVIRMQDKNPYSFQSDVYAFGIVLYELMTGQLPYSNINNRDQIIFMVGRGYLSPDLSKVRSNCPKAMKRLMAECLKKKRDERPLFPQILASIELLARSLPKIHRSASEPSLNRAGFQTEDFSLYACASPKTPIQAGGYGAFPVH

Row | IC50 | Compound
1 | 742 nM | CCc1cccc(C(=O)Nc2ccc(C)c(NC(=O)c3ccc4nccnc4c3)c2)c1 [Example 11, N-{5-[(3-Ethylbenzoyl)amino]-2-methylphenyl}quinoxaline-6-carboxamide]
2 | 20 nM | CCCOc1cccc(C(=O)Nc2ccc(C)c(NC(=O)c3ccc4nccnc4c3)c2)c1 [Example 12, N-{2-Methyl-5-[(3-propoxybenzoyl)amino]phenyl}quinoxaline-6-carboxamide]
